Data on five molecules can be found in patent US10611742B2, “4-oxo-4,5-dihydrothiazole derivative, preparation method and use thereof” (Institute of Pharmacology and Toxicology Academy of …, priority 2015, dated 2020).

Molecules are shown by their SMILES. Bounds are passed on as bounds.

Holding throughout (type): cell-based
For series [1], the system named is enterovirus EV71 (SZ-98 strain). In words: anti-EV71 activity, therapeutic effect on MRC-5 cell (CPE inhibition, Celltiter Glo). To be noted: MRC5. As for the experimental part: (§1) Test principle: Vero cell, MRC-5 cell, and RD cell were used as host of virus, respectively, and samples were tested for their inhibition of cytopathic effect (CPE) caused by virus.
(§2) 1. Virus strain: enterovirus EV71 (SZ-98 strain, provided by Chinese Center for Disease Control and Prevention), Vero cell (provided by the Cell Bank of Chinese Academy of Sciences), MRC-5 cell (provided by the Cell Bank of Chinese Academy of Sciences), and RD cell (provided by the Cell Bank of Chinese Academy of Sciences), were subjected to passage culture, respectively, and stored at −80° C.
(§3) 2. Sample treatment: a test sample (Compounds 1-14 and positive control agent) was dissolved in dimethyl sulfoxide (DMSO) to prepare a stock solution, which was stored at −20° C. The stock solution was diluted with DMEM medium (Gibco Company) containing 2% fetal bovine serum (Gibco Company) to prepare a 100 μM solution before use, and was 3-fold diluted with the medium to obtain 8 diluted concentrates.
(§4) 3. Positive control agent: Con1 (pitstop2) (purchased from AmyJet Scientific Inc., Abcam), a broad-spectrum antiviral inhibitor.
(§5) 4. Test method: • 4.1 Therapeutic effect: the cells were seeded on a 96-well culture plate, and cultured in a 5% CO2, 37° C. incubator for 24 h. About 100 TCID50 enterovirus EV71 was added to each well. After adsorption at 37° C. for 1 h, the virus solution was discarded, and a drug was added at different diluted concentrates, respectively. Meanwhile, virus control and cell control were set, and cultured at 37° C. […] The virus-inhibition rate of a sample at each concentration was calculated based on the chemiluminescent value, the sample concentration was used as abscissa, and the inhibition rate was used as ordinate, and S-Curve fitting was performed by using Origin software. Half maximal inhibitory concentration (IC50) of each sample for enterovirus EV71 was calculated based on the fitting results. Median toxic concentration (TC50) was determined by the same method. […] To each well, a drug was added at a different diluted concentration, then the cells were cultured at 37° C. for 2 h, and then the drug was discarded. About 100 TCID50 enterovirus EV71 was added to each well, adsorbed at 37° C. for 1.5 h, then the virus solution was discarded, and a maintenance medium free of drug was added. Meanwhile, virus control and cell control were set, and cultured at 37° C. […] The virus-inhibition rate of a sample at each concentration was calculated, and half maximal inhibitory concentration (IC50), median toxic concentration (TC50), and selection index (SI) of each sample for enterovirus EV71 were calculated. The methods for determining and calculating them were as described in Item 4.1
In general terms: In ATP-based viability assays light output follows the ATP content of the culture.

Series [2] is described as follows: median toxic concentration on MRC-5 cell. To be noted: human, MRC-5 cells, Table 1-2 (therapeutic effect), read-out: TC50 (the source's name). As for the experimental part: as §2, §3, §5
Series [3] in a line: median toxic concentration on Vero cell. To be noted: African green monkey, Vero cells; for CC50 at 2 h: Table 2-1 (preventive effect), read-out: TC50; for CC50: Table 1-1 (therapeutic effect), read-out: TC50 (the source's name). As for the experimental part: as §2, §3, §5
The next series deals with Vero cell. The series is described as follows: median toxic concentration on Vero cell. As to conditions: Table 1-1 (therapeutic effect). As for the experimental part: as §2, §3, §5
Series [4] relates to enterovirus EV71 (SZ-98 strain). The series is described as follows: anti-EV71 activity, therapeutic effect on RD cell (CPE inhibition, Celltiter Glo). As for the experimental part: as §1, §2, §3, §4, §5
Series [5] shares this test system. The series is described as follows: anti-EV71 activity, preventive effect on RD cell (CPE inhibition). As for the experimental part:
as §1, §2, §3, §4, §5

Series [6] in a line: median toxic concentration on RD cell. As to conditions: human, RD cells; for CC50: read-out: TC50 (the source's name); for CC50 at 2 h: Table 2-2 (preventive effect), read-out: TC50. As for the experimental part: as §2, §3, §5
Series [7] deals with enterovirus EV71 (SZ-98 strain). The series is described as follows: anti-EV71 activity, therapeutic effect on Vero cell (CPE inhibition, Celltiter Glo). As to conditions: EV71 (SZ-98 strain), therapeutic effect on Vero cell; read-out: IC50. As for the experimental part: as §1, §2, §3, §4, §5
Series [8] has the same test system. In words: anti-EV71 activity, preventive effect on Vero cell (CPE inhibition). As for the experimental part:
as §1, §2, §3, §4, §5

Series [9] has as its system clathrin-mediated endocytosis of transferrin. The series is described as follows: inhibition of clathrin-mediated endocytosis of transferrin in HeLa cells (fluorescence microscope). As to conditions: for inhibitory effect on endocytosis of transferrin (in words): 1.25 to 40 μmol/L; for inhibition at 20 µM: Homo sapiens, 20 μM compound, read-out: Inhibition rate. As for the experimental part: 1. Experiment principle: transferrin was a key protein for clathrin-mediated endocytosis. Therefore, by determining the effect of a compound on transferrin in HeLa cell, the inhibitory effect of the compound on clathrin-mediated endocytosis could be evaluated. 2. Sample treatment: a test compound was dissolved in DMSO to prepare a stock solution, which was stored at −20° C. The stock solution was diluted with HEPES buffer (25 mm HEPES, 20 mm Glucose, 1% BSA, sterile water) to prepare a solution with an initial concentration of […] before use, and was 2-fold diluted with the buffer to obtain 6 diluted concentrations from 1.25 to 40 μmol/L. 4. Test method: HeLa cells (provided by the Cell Bank of Chinese Academy of Sciences) were seeded on a 24-well culture plate coated with 0.1 mg/ml polylysine, a serum-free medium DMEM (Gibco Company) was added at 500 μl/well, and the cells were cultured for one night. To each well, 0.5 μl a test compound at a different diluted concentration or 0.1 v/v % DMSO was added, then the pretreatment was performed for 15 min, and then 20 μg/ml alexa^568 transferrin (2 μl) (TF, SIGMA-ALDRICH Company) was added, and the incubation was carried out at 37° C. for 15 min. The resultant mixture was then washed with Live Cell Imaging Solution (LCIS, Invitrogen Company) and an acid at a low pH ([…] NaCl solution containing 0.5% acetic acid) for 30 s, respectively, followed by fixing with cold methanol, and was observed under fluorescence microscope.

Take `O=C1N=C(NS(=O)(=O)c2cccc3ccccc23)S/C1=C\c1ccc(C(=O)O)cc1` [Compound 5, Naphthalene-1-sulfonic acid [5-(4-carboxy-benzylidene)-4-oxo-4,5-dihydro-thiazol-2-yl] amide]: the IC50 (commonly the concentration at which inhibition is half-maximal) in series [1] is > 200 µM; in series [4] (EV71 (SZ-98 strain)), 22.2 µM; in series [5] it was 200 µM; in [7], > 200 µM; in series [8] it was ≥ 22.2 µM. The CC50 in series [2] and in series [6] (Table 1-3 (therapeutic effect)) was > 200 µM throughout. Besides, the CC50 at 2 h was 200 µM in series [3] and > 200 µM in [6]. The molecule also displayed a TC50 in the series on Vero cell of 200 µM. In [4], the “anti-EV71 activity (in words)” value is reported as “better anti-EV71 activity”.
Regarding `O=C1N=C(NS(=O)(=O)c2cccc3ccccc23)S/C1=C\c1ccc(F)cc1Cl` [Compound 10, Naphthalene-1-sulfonic acid [5-(2-chloro-4-fluoro-benzylidene)-4-oxo-4,5-dihydro-thiazol-2-yl] amide], the IC50 in [1] was > 7.41 µM; in series [4] (EV71 (SZ-98 strain)), > 7.41 µM; in [5] it was 5.14 µM; in series [7], > 7.41 µM; in series [8], > 7.41 µM. Further, the CC50 in series [2] was found to be 12.8 µM; in series [3], 10.7 µM; in series [6] (Table 1-3 (therapeutic effect)) it was 15.4 µM. For the same molecule, the CC50 at 2 h was determined as 10.7 µM in [3] and 15.4 µM in series [6]. Besides, the “endocytosis of transferrin at 20 μM (in words)” value in series [9] is “completely inhibited”. Besides, the “inhibitory effect on endocytosis of transferrin (in words)” value (shortened to “inhibitory effect on endocytosis”) in series [9] was “dose-dependent”. Moreover, the inhibition (as a rule, the percentage by which the read-out fell short of the control) at 20 µM in series [9] was 100%.
With `O=C1N=C(NS(=O)(=O)c2cccc3ccccc23)SC1Nc1ccccc1` (centres unmarked) [Compound 13, Naphthalene-1-sulfonic acid (4-oxo-5-phenylamino-4,5-dihydro-thiazol-2-yl) amide], the IC50 is > 22.2 µM in series [1]; > 22.2 µM in [4] (EV71 (SZ-98 strain)); 7.41 µM in series [5]; > 22.2 µM in series [7]; > 22.2 µM in series [8]. The CC50 in [2], in [3] and in series [6] (Table 1-3 (therapeutic effect)) was 66.7 µM throughout. Also, the CC50 at 2 h in series [3] and in [6] was 66.7 µM each time. For the same molecule, the inhibition at 20 µM in series [9] is 50%.
As for `O=C1N=C(NS(=O)(=O)c2cccc3ccccc23)SC1C(c1ccccc1)c1ccc(Br)cc1` (centres unmarked) [Compound 14, Naphthalene-1-sulfonic acid {5-[(4-bromo-phenyl)-phenyl-methyl]-4-oxo-4,5-dihydro-thiazol-2-yl} amide], the IC50 in series [1] is 15.4 µM; in series [4] (EV71 (SZ-98 strain)), 15.4 µM; in series [5], 22.2 µM; in series [7], 15.4 µM; in series [8] it was > 22.2 µM. Moreover, the CC50 is 32 µM in series [2], 32 µM in series [3] and 38.5 µM in series [6] (Table 1-3 (therapeutic effect)). Also, the CC50 at 2 h is 32 µM in [3] and 38.5 µM in series [6]. For the same molecule, the “anti-EV71 activity (in words)” value in [4] was “better anti-EV71 activity”. The “endocytosis of transferrin at 20 μM (in words)” value in [9] is “completely inhibited”. The “inhibitory effect on endocytosis” value in series [9] is reported as “dose-dependent”. For the same molecule, in series [9], the inhibition at 20 µM came out at 100%.
On to `O=C1N=C(NS(=O)(=O)c2cccc3ccccc23)S/C1=C\c1ccc(Br)cc1` [Con 1, Naphthalene-1-sulfonic acid [5-(4-bromo-benzylidene)-4-oxo-4,5-dihydro-thiazol-2-yl] amide, reference compound], for which the IC50 in series [1] is > 2.47 µM; in series [4] (EV71 (SZ-98 strain)), 5.41 µM; in series [4] (Enterovirus, EV71), 5.14 µM; in [5], 5.14 µM; in series [7], > 2.47 µM; in series [8], > 2.47 µM. The CC50 in series [2] was determined as 10.7 µM; in series [3] it was 4.28 µM; in series [6] it was 12.8 µM. Besides, the CC50 at 2 h in series [3] stood at 4.28 µM; in series [6], 12.8 µM. The “inhibitory effect on endocytosis” value in series [9] is reported as “dose-dependent”. The inhibition at 20 µM in [9] stood at 50%.
